Measured values: PMC6522981, “Structure-based design generated novel hydroxamic acid based preferential HDAC6 lead inhibitor with on-target cytotoxic activity against primary choroid plexus carcinoma” (Journal of Enzyme Inhibition and Medicinal Chemistry, 2019)

What was measured:
[1] = target: T1, human HDAC2 (Homo sapiens, UniProt Q92769); experiment: HDAC2 inhibitor enzymatic assay, % inhibition at fixed concentration; type: biochemical; conditions: read-out: %inhibition of HDACs at 10µM of test compound HDAC2; 10 µM compound; mean of two replicates
T1 construct: purchased BPS Bioscience 50002

[2] = tested on: acetylated α-tubulin in HL60 cells; experiment: Western blot analysis of acetylated α-tubulin in HL60 cells; type: cell-based; conditions: 24 h
Procedure: CCHE-45 cells were treated with 100 µM of test compound for 24 h. HL60 cell line (a kind gift from Professor Azza Kamel from the National Cancer Institute, Cairo University); and is cultured in RPMI-1640 (Lonza, BE-12-702F) supplemented with 10% Fetal Bovine Serum (FBS, Gibco, 12483–020) and 100 U/ml penicillin and 100 µg/ml streptomycin (Lonza, DE17-602F), has also been treated with different concentrations of 10a in twofold serial dilutions for 24 h. Proteins were extracted from CCHE-45 cells using RIPA Lysis and Extraction Buffer (ThermoScientific, cat. No: 89901) containing 100x Halt Protease and […] Inhibitor Cocktail (ThermoScientific, cat. No. 78444). Followed by protein quantification using Bradford Reagent (Pierce Coomassie Plus (Bradford) Assay Reagent) (ThermoScientific, cat. No. 23238). A total of 50 µg proteins were loaded on a 10% SDS page using 30% Acrylamide/Bisacrylamide 19:1(Serva, cat. No. 10679.01) then transferred by semidry transfer method using Bio-Rad Trans-Blot Turbo transfer system on PVDF Transfer Membrane (ThermoScientific, cat. No. 88518). The membranes were incubated overnight at 4 °C in the primary antibodies Mouse monoclonal Anti-Beta Actin antibody (1:100, abcam, ab8224) and Mouse monoclonal Anti-acetylated α Tubulin (1:200, Santa Cruz Biotechnology, sc-23950). […]

[3] = target: human HDAC4 (Homo sapiens, UniProt P56524); experiment: HDAC4 inhibitor enzymatic assay, % inhibition at fixed concentration; conditions: read-out: %inhibition of HDACs at 10µM of test compound HDAC4
[4] = target: human HDAC9 (Homo sapiens, UniProt Q9UKV0); experiment: HDAC9 inhibitor enzymatic assay, % inhibition at fixed concentration; conditions: read-out: %inhibition of HDACs at 10µM of test compound HDAC9
[5] = target: T2, human HDAC10 (Homo sapiens, UniProt Q969S8); experiment: HDAC10 inhibitor enzymatic assay, % inhibition at fixed concentration; conditions: read-out: %inhibition of HDACs at 10µM of test compound HDAC10
T2 sequence (Q969S8 1-669): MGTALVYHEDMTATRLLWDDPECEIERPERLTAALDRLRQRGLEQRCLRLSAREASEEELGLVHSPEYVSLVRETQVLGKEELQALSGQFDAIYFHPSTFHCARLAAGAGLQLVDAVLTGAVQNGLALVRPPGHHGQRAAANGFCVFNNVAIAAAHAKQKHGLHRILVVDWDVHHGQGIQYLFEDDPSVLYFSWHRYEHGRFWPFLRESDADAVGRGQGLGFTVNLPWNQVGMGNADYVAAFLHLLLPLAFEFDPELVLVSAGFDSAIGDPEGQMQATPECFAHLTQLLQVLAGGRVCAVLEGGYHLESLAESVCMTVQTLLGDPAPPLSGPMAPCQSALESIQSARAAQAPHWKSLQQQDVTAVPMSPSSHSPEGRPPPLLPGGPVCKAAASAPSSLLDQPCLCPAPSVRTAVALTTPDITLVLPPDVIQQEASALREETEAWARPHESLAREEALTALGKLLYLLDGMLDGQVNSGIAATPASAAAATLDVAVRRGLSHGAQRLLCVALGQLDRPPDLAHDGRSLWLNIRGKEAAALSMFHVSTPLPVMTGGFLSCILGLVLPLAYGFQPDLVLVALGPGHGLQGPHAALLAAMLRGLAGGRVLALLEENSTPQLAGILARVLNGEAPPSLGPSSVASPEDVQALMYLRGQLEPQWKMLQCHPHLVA

T1 sequence (Q92769 whole entry): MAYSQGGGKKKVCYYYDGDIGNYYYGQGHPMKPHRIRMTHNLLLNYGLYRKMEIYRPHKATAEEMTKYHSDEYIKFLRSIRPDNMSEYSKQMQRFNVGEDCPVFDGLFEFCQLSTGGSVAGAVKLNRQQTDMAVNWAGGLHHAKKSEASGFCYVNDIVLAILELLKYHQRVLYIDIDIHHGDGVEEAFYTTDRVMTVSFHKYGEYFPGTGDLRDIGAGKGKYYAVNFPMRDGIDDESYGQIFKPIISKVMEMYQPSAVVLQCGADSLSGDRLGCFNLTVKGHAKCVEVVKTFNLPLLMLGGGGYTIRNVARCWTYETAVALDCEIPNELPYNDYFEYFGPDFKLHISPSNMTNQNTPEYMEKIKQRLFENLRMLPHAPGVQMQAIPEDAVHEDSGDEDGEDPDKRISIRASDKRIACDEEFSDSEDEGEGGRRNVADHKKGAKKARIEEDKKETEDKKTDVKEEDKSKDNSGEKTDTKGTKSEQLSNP
Sequence of human HDAC9 (Q9UKV0 1-1066 isoform Q9UKV0-5): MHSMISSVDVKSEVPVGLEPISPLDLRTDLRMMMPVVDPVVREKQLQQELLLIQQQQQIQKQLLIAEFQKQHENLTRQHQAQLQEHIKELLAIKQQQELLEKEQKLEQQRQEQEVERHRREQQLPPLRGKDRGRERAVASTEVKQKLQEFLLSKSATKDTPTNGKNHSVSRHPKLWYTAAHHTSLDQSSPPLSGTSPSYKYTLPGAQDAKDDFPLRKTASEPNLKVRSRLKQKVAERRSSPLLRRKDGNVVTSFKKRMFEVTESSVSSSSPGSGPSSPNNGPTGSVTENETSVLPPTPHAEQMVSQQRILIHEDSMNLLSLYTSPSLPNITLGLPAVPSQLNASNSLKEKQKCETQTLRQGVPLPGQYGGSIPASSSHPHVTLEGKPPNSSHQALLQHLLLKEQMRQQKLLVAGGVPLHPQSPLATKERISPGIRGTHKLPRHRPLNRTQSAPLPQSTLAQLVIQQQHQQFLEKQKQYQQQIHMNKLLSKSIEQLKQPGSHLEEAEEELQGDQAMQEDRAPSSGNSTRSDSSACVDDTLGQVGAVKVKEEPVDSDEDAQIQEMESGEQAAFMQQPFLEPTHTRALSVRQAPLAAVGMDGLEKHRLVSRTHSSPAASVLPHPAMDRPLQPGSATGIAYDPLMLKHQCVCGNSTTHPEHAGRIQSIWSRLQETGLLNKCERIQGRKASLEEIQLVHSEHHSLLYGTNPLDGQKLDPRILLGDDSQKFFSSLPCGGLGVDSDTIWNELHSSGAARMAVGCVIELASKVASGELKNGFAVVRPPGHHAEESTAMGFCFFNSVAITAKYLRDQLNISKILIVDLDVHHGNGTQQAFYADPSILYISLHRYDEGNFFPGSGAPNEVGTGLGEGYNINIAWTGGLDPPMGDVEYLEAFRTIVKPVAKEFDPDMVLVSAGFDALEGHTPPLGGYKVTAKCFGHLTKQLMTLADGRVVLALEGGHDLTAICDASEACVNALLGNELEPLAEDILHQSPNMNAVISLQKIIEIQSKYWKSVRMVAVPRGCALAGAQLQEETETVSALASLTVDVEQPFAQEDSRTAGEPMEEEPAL
Sequence of human HDAC4 (P56524 627-1084 limits assumed): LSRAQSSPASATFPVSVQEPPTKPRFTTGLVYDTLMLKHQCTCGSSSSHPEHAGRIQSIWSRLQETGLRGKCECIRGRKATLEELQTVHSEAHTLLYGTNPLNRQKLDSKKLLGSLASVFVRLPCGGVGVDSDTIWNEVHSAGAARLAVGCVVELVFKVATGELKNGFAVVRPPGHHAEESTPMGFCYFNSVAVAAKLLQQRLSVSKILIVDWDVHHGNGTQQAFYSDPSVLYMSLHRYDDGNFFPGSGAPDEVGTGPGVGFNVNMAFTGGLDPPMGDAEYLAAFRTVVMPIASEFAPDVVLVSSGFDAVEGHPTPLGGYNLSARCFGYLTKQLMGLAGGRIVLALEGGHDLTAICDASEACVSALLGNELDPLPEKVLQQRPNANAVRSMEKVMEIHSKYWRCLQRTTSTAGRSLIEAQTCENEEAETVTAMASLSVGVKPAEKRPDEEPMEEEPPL

- inhibition at 10 µM [1]: 19%
- inhibition at 10 µM [3]: 1%
- inhibition at 10 µM [4]: 5%
- inhibition at 10 µM [5]: 28%
SMILES: O=C(CCCSc1nc2ccccc2n1Cc1ccccc1)NO [Compound 10a, 4-((1-benzyl-1H-benzo[d]imidazol-2-yl)thio)-N-hydroxybutanamide]
- concentration with significant upregulation of acetylated α-tubulin ([2]; 6.25-100 µM tested): 25 µM
- concentration from which acetylated α-tubulin is upregulated ([2]; Figure 6 legend): ≥ 12.5 µM
